Experimental data taken from US10617656B2, “Methods of increasing the cytotoxicity of chemotherapeutic agents with multisubstrate inhibitors of histone, protein-Lys, polyamine acetylation, and polyamine metabolism” (Vanderbilt University, priority 2010, dated 2020).

System: H358 lung cancer cells
Assay: [3H]-thymidine incorporation (DNA synthesis) assay in H358 cells
Assay type: cell-based
Method: (A) Structures of 1a, and the acetylated side chain of a lysine residue within the polypeptide chain of a protein targeted by the acetylating enzyme (R1 and R2 are the main chain elements on both sides of the lysyl residue). (B) [^3H]-thymidine incorporation into DNA of H358 cells pulsed for 6 hrs at three different time points after the addition of increasing concentrations of 1a, i.e., at 6-12 hrs (12 hr curve), at 18-24 hours (24 hr curve), or at 42-48 hrs (48 hr curve). Incorporation is represented as a percentage relative to control (untreated) cells. (C) Cell cycle analysis of propidium iodide-stained cells harvested at various times after addition of 50 μM 1a. % of cells in G1, S, and G2 represents the average of two independent profiles. (D) Western analysis of histone H3 lysine 9 acetylation, histone H3 lysine 56 acetylation, histone H3 lysine 9 methylation, and total histone H3, before “c” or at the indicated times after addition of 50 μM 1a. Each lane represents 60 μg cellular protein.
Control cells were left untreated. […] Control cells were left untreated.
Cells were either labeled immediately before treatment (starting DNA synthesis rate), or subjected to the indicated treatments and then pulsed on successive days until day 4. DNA synthesis is represented as the percent of starting DNA synthesis rate. Viability was determined for each treatment condition 24 hours post-start of treatment by the trypan blue exclusion assay, with percentages of viable cells indicated to the right of the graph.
H358 cells (2,000/well) in 96-well plates were treated with 1, 10 or 50 μM of spd-1a, spd-2a, spd-3a, spm3, or spm2 for 12 hours. Triplicate wells of cells were pulsed 6 hours with 0.5 μCi [^3H]-thymidine (NEN, Boston Mass.) post-start of drug treatment, and harvested onto filter paper using a Brandel Harvester and subjected to scintillation counting. Untreated cells were pulsed from 0-6 hrs to establish the initial rate of incorporation.
Cells were plated in 96-well plates (2000 cells per well to insure conditions for exponential growth for untreated cells over the time course of the experiment) and exposed to the following treatments: 1a (50 μM); camptothecin (Sigma, St Louis, Mo. 5 nM, 18 hours); cisplatin (Platinol, obtained through local pharmacies, 2 μM, 1 hour 15 minutes), 5-fluorouracil (5FU, Adrucil™, obtained through local pharmacies, 2 μM, 1 hour 15 minutes), Taxotere (provided by the late Dr. Pierre Potier, 5 nM, 18 hours). UVC treatment (40 J/m^2) using a Stratalinker™, Stratagene, La Jolla, Calif.) was carried using medium lacking phenol red. At 0-6 hr, 18-24 hr (day 1), 42-48 hr […], 66-72 hr (day 3), and 90-96 hr (day 4) post-start of treatment, triplicate wells were incubated with 0.5 μCi [^3H]-thymidine (NEN, Boston Mass.), harvested onto filter paper, and subjected to scintillation counting. Trypan blue exclusion assays for cell membrane integrity were carried out as known in the art.
The present inventors used 96-well viability assays as described in Saadatmandi et al (Cancer Gene Therapy (2002) 9:[…]) to examine the effect of 1a on DNA synthesis in H358 cells, as well as the combined effects of 1a and chemotherapeutic agents. H358 cells were plated in 96-well plates at 3000 cells per well. […]

Structure (SMILES) | sensitization to 5-FU (50 μM 1a + 5FU 2 μM) | inhibition of DNA synthesis (1, 10 or 50 μM, 12 hours)
CC(C)(COP(=O)(O)OP(=O)(O)OC[C@H]1O[C@@H](n2cnc3c(N)ncnc32)[C@H](O)[C@@H]1OP(=O)(O)O)[C@@H](O)C(=O)NCCC(=O)NCCSCC(=O)NCCCNCCCCN [1a, spermidine[N1]-CoA] | sensitized | 
CC(=O)NCCSCC(=O)NCCCNCCCCNCCCN [spm-3] |  | inhibit DNA synthesis
